Source: paper PMC8826726, “Selective Toxicity of Secondary Metabolites from the Entomopathogenic Bacterium Photorhabdus luminescens sonorensis against Selected Plant Parasitic Nematodes of the Tylenchina Suborder” (Microbiology Spectrum, 2022)
Converted amounts (≈) assume the structure as drawn. Like-named read-outs stand apart in the source and are kept apart here.

Experiments:
[1] = system: Tylenchulus semipenetrans J2 juveniles; test: microbe, parasite or virus in culture; settings: Tylenchulus semipenetrans, 24 h
Excerpt: (§1) Only soil inhabiting (free-living or infective) stages of target and non-target nematode species were considered in the present study. All nematode cultures (except T. semipenetrans) were maintained in the Stock laboratory (University of Arizona). M. incognita was reared in planta using susceptible tomato plants (cv. Roma VF; seedlings with five or six true leaves; courtesy of Dr. J. Brown, University of Arizona). Eggs of M. incognita were extracted from infected tomato plant roots, and J2 were collected after hatching, following the procedures of Atamian et al. ([50]). T. semipenetrans was isolated from infested lemon orchards at the Yuma Agricultural Center, University of Arizona (Yuma, AZ, USA). Eggs of T. semipenetrans were extracted from infected lemon tree roots using the procedures of El-Borai et al. ([51]), and J2 were collected using the same procedure as that described for M. incognita.
(§2) Twelve-well tissue culture plates were used as the experimental arena. For each of the tested nematode species, an inoculum of 100 nematodes, suspended in 20 μL distilled water, was added to each well. […] For PPA (Enamine) and indole (Alfa Aesar), 13 incremental concentrations were tested ranging from 10 to 400 μg/mL in 1 mL of distilled water (DMSO ≤ 1%; vol/vol). […] Distilled water with 1% DMSO was used as the negative control. To measure the combined nematicidal effects of the three SMs, equal concentrations of two or three SMs were mixed in 1:1 or 1:1:1 mixture. For example, a 20 μg/mL solution of a two-SM mixture contained 20 μg from metabolite A and 20 μg metabolite B, dissolved in 1 mL distilled water. Individual or combined SMs from 10 μg/mL to 200 μg/mL (in 20 μg/ml increments) were prepared in distilled water (DMSO ≤ 1%; vol/vol) and used for the bioassays.
(§3) The well plates were covered with their lids and incubated at 25°C in the dark. For the targeted nematode species, nematicidal activity was recorded at 24 h, 48 h, and 72 h after initial exposure to the individual SMs. For the non-target species, data were only recorded at 24 h after initial exposure to the individual SMs. For SM mixtures, mortality was recorded 24 h after initial exposure of the targeted nematode species. Nematodes were probed with a needle to assess if they were alive, dead, or paralyzed. […] Those nematodes that resumed activity upon probing were considered to suffer from temporary paralysis (impaired motility). Paralyzed nematodes were rinsed at least three times in distilled water and held for an additional 24 h to check for their recovery from temporarily paralysis. […] Experiments were repeated at least three times per treatment for each concentration tested.
(§4) For the toxicity data visualization, the relationship between percent mortality or temporary paralysis and metabolite concentration were described by a sigmoidal curve, which was fitted by the logistical function using the statistical software package SigmaPlot for Windows, version 14.0 (Systat Software Inc.). […] Concentration-response data of single metabolites or SM mixtures were pooled for each concentration and subjected to probit regression analysis using the Polo Plus program (LeOra Software). The LC or EC values, along with the corresponding 95% confidence intervals, were estimated for each single SM or SM mixture at each exposure time, depending on the experimental setting.

[2] = system: Meloidogyne incognita J2 juveniles; test: microbe, parasite or virus in culture; settings: Meloidogyne incognita, 24 h
Excerpt: as §1, §2, §3, §4

[3] = system: non-target nematodes versus targeted PPNs; test: Selectivity index, non-target nematodes over targeted PPNs
Experimental: The selectivity index of a given SM was calculated by dividing the averages of the LC50 or EC50 values obtained against each of the selected non-target nematodes by the LC50 or the EC50 values observed for each of the targeted PPN tested.

Meloidogyne incognita J2 = test: Recovery from indole-induced temporary paralysis after rinsing with water; format: cell-based
R. blumi [4] = test: In vitro nematistatic assay (temporary paralysis), non-target species; format: cell-based, Rhabditis blumi
H. bacteriophora = test: as above; format: cell-based; settings: Heterorhabditis bacteriophora; reversible paralysis, 24 h exposure
[5] = system: HFF cells (human foreskin cells); test: MTT cytotoxicity assay; format: cell-based; settings: tested at 50, 100, 200 μM, data not shown
Experimental: The non-cancerous HFF cells (human foreskin cells) and three human cancer cell lines, NCI-H460 (non-small cell lung cancer), SF-268 (central nervous system glioma), and MCF-7 (breast cancer) were used to evaluate the in vitro cytotoxicity of the isolated Photorhabdus SMs. The MTT (3-(4,5-dimethylthiazol-2-yl)-2,5-diphenyltetrazolium bromide) colorimetric method ([54]) was used with doxorubicin as the positive control, and DMSO as the negative control. Photorhabdus SMs were tested at 50, 100, and 200 μM concentrations, and the assays were repeated three times.

[6] = system: Tylenchulus semipenetrans J2 juveniles; test: In vitro nematistatic assay (temporary paralysis); format: cell-based; settings: for EC50 / EC90 / EC10 / EC25: temporary paralysis
S. carpocapsae = test: In vitro nematistatic assay (temporary paralysis), non-target species; format: cell-based; settings: Steinernema carpocapsae; reversible paralysis, 24 h exposure
R. blumi [7] = test: in vitro; settings: data not shown
Excerpt: (§5) The non-target species, C. elegans wild-type strain N2 Bristol (courtesy of Dr. G.L. Sutphin, University of Arizona) and Rhabditis blumi DF5010 (Caenorhabditis Genetics Center, University of MN, USA) were maintained in vitro in nematode growth medium (NGM) agar plates seeded with Escherichia coli (Migula) Castellani and Chalmers, strain OP-50, as described previously ([52]). Mixed juveniles and hermaphrodites (5 to 6 days old) were collected from the culture plates prior to the bioassays. Infective third-stage juveniles (IJs) of three non-target entomopathogenic nematode species (H. sonorensis Caborca strain, H. bacteriophora TT01 strain, and Steinernema carpocapsae All strain) were also maintained by rearing them in vivo using wax moth larvae (Galleria mellonella) as the host, according to procedures described previously ([53]), and collected for bioassays within 2 to 4 days of their emergence from nematode-infected cadavers. Nematode population density (number of nematodes per ml) was standardized prior to setting up well-plate bioassays, by adjusting each nematode suspension to a concentration of 100 nematodes in 20 μL of distilled water.
as §2, §3, §4

C. elegans = test: in vitro; settings: data not shown
Excerpt: as §5, §2, §3, §4

c1ccc2[nH]ccc2c1 [Indole, indole]
LC50 [1]: 388 µg/mL (≈ 3310 µM) | LC50 [2]: 307 µg/mL (≈ 2620 µM) | Selectivity index (EC50), bacteria-feeding nematodes alone ([3]; 24 h EC50): 2–3 | Selectivity index (EC50), entomopathogenic nematodes alone ([3]; 24 h EC50): 7-11 | Selectivity index (EC50), selected non-target nematode species ([3]; 24 h EC50, all non-target species): 5–8 | Recovery after 24 h in water (Meloidogyne incognita J2; 60 μg/mL, 24-h exposure to treatment): 95.9% | Recovery after 24 h in water (Meloidogyne incognita J2; 60 μg/mL, 72-h exposure to treatment): 95.5% | Recovery after 24 h in water (Meloidogyne incognita J2; 80 μg/mL, 24-h exposure to treatment): 94.9% | Recovery after 24 h in water (Meloidogyne incognita J2; 80 μg/mL, 72-h exposure to treatment): 92.8% | M. incognita regaining baseline mobility during a recovery period of 24 h (Meloidogyne incognita J2; regardless of length of prior exposure (24 h to 72 h)): over 90% | Reduction of 24-h EC50 against R. blumi versus C. elegans (R. blumi [4]; 24 h): 77% | EC50 (R. blumi [4]; Metarhabditis blumi, reversible paralysis, 24 h exposure): 37 µg/mL (≈ 316 µM) | EC50 (H. bacteriophora): > 400 µg/mL | In vitro cytotoxicity: none even at the highest concentration tested [5]: > 200 µM | Reduction of EC50 for T. semipenetrans versus M. incognita ([6]; 24 h of exposure): 34% | Increase of EC50 at 72 h compared with 24 h ([6]; T. semipenetrans): 84% | Increase of EC90 at 72 h compared with 24 h ([6]; T. semipenetrans): 79% | EC50 ([6]; Tylenchulus semipenetrans, 24 h, 24 h exposure, read-out: EC50): 37 µg/mL (≈ 316 µM) | EC50 ([6]; Tylenchulus semipenetrans, 48 h, 48 h exposure, read-out: EC50): 66.2 µg/mL (≈ 565 µM) | EC50 ([6]; Tylenchulus semipenetrans, 72 h, 72 h exposure, read-out: EC50): 68.3 µg/mL (≈ 583 µM) | EC90 ([6]; Tylenchulus semipenetrans, 24 h exposure): 64.2 µg/mL (≈ 548 µM) | EC90 ([6]; Tylenchulus semipenetrans, 48 h exposure): 108 µg/mL (≈ 922 µM) | EC90 ([6]; Tylenchulus semipenetrans, 72 h exposure): 115 µg/mL (≈ 982 µM) | EC10 ([6]; 24 h exposure): 21.4 (12.8, 27.9) μg/mL | EC25 ([6]; 24 h exposure): 27.8 (18.9, 34.2) μg/mL | EC50 ([6]; 24 h exposure): 37.1 µg/mL (≈ 317 µM) | EC10 ([6]; 48 h exposure): 40.6 (8.18, 57.5) μg/mL | EC25 ([6]; 48 h exposure): 51.2 (16.1, 67.0) μg/mL | EC10 ([6]; 72 h exposure): 40.5 (13.1, 55.8) μg/mL | EC25 ([6]; 72 h exposure): 51.9 (23.3, 66.0) μg/mL | EC50 (S. carpocapsae): > 400 µg/mL | Concentrations showing nematicidal activity (R. blumi [7]): ≥ 300 µg/mL | Concentrations showing nematicidal activity (C. elegans): ≥ 300 µg/mL
